Measurements as given in paper PMC9598926, “Design and Synthesis of (Z)-5-(Substituted benzylidene)-3-cyclohexyl-2-thioxothiazolidin-4-one Analogues as Anti-Tyrosinase and Antioxidant Compounds: In Vitro and In Silico Insights” (Antioxidants, 2022).

Experiments:
[1] = ROS scavenging activity assay (DCFH-DA/esterase, SIN-1); details: SIN–1 10 µM; 5, 10, 20 µM
Description: 2.13. ROS Scavenging Activity Assay
The ROS scavenging activities of analogs 1–8 and Troloxwere determined as previously described by Ali et al. and Lebel and Bondy. Briefly, 2.5 mM DCFH-DA (2’,7’-dichlorodihydrofluorescein diacetate) (Molecular Probes, Eugene, OR, USA) solution was mixed with esterase (1.5 units/mL) in 50 mM phosphate buffer (pH 7.4), held for 30 min at 37 °C, and keep on ice in the dark until required. Tested compounds (10 µL; final concentrations: 5, 10, and 20 µM) dissolved in DMSO and SIN-1 (3-morpholinosydnonimine) (10 µM) and 180 µL of phosphate buffer in the wells of a black 96-well plate for 30 min. The 50 µL of DCFH-DA-esterase mixture (20 µM) was added. Fluorescence intensities of oxidized DCFH (DCF or 2′,7′-dichlorofluorescein) were measured using a microplate reader (Berthold Advances GmbH & Co., Bad Wildbad, Germany) with excitation and emission wavelengths of 485 and 530 nm, respectively. Trolox was used as the reference control.
Since it has been reported that reactive oxygen species (ROS) are concerned in the regulation of melanogenesis, we examined the ROS scavenging activities of analogs 1–8 using DCFH-DA (2′,7′-dichlorodihydrofluorescein diacetate) and esterase. Trolox and SIN–1 (3-morpholinosydnonimine) were used as the positive control and a ROS generator, respectively. Hydrolysis of DCFA-DA by esterase generates DCFH (2′,7′-dichlorodihydrofluorescein), which reacts with ROS generated by SIN–1 to produce the fluorescent compound DCF (2′,7′-dichlorofluorescein). Thus, ROS scavenging activities of analogs were assessed by measuring DCF fluorescence. […] Test samples including Trolox were treated at three different concentrations (5, 10, or 20 µM).

[2] = Peroxynitrite (ONOO−) scavenging activity assay (DHR 123, SIN-1); details: SIN–1 10 µM; 5, 10, 20 µM
Description: 2.14. Peroxynitrite (ONOO^−) Scavenging Activity Assay
Peroxynitrite-scavenging activities were determined as described by Kooy et al. with modification. This method monitors the fluorescence of rhodamine 123, which is formed rapidly when non-fluorescent DHR 123 (dihydrorhodamine 123) (Molecular Probes, Eugene, OR, USA) in the presence of peroxynitrite. The rhodamine buffer solution (pH 7.4) included of 50 mM sodium phosphate, 90 mM sodium chloride, 5 mM potassium chloride, and 100 µM DTPA. The final concentration of DHR 123 was 5 µM. In this assay, the buffer solution was prepared prior to use and then stood on ice. Test compounds (10 µL, final concentrations: 5, 10, and 20 µM) dissolved in DMSO and added to 10 µL SIN-1 (10 µM) and 180 µL rhodamine buffer solution in the wells of a black 96-well plate. Fluorescence intensities of oxidized DHR 123 were measured using a fluorescence plate reader (Berthold Advances GmbH & Co., Bad Wildbad, Germany) with an excitation and emission wavelengths of 485 and 535 nm, respectively. Peroxynitrite scavenging activity was calculated after subtracting background fluorescence from final fluorescence intensity. Results are expressed as means ± standard deviation (SD), and L-penicillamine was used as a positive control.
Several RNS (reactive nitrogen species), including peroxynitrite (ONOO^–) and nitric oxide, are known to be involved in the induction of the melanogenesis. Therefore, we investigated the effects of analogs 1–8 on peroxynitrite scavenging activity using DHR123 (dihydrorhodamine) as a ROS indicator and SIN–1 as an RNS generator. Peroxynitrite generated by SIN–1 oxidizes DHR123 to rhodamine 123, a fluorescent compound. Thus, the effects of analogs on peroxynitrite scavenging ability were determined by measuring rhodamine 123 fluorescence.

mushroom tyrosinase = test: Mushroom tyrosinase activity assay (L-tyrosine as substrate); type: biochemical; details: for tyrosinase inhibition relative to kojic acid: fold more than kojic acid; for IC50: mushroom tyrosinase, means ± SEMs of triplicate determinations; for enhancement of tyrosinase inhibitory activity relative to analog 1: versus analog 1
Description: 2.2. […] In brief, 20 µL of an aqueous mushroom tyrosinase solution (1000 units/mL) and 170 µL of a substrate mixture containing 345 µM of L-tyrosine and 17.2 mM of sodium phosphate buffer (pH 6.5) were added to wells of a 96-well microplate. […] Amounts of dopachrome produced were assessed by measuring optical densities at 475 nm using a microplate reader (VersaMax®, Molecular Devices, Sunnyvale, CA, USA). […] Experiments were independently conducted three times.

[3] = ABTS cation radical scavenging activity assay; details: test sample 100 µM, 2 min in the dark
Description: 2.12. ABTS Cation Radical Scavenging Activity Assay
The free radical scavenging activities of analogs 1–8 and Trolox were determined using an ABTS radical cation decolorization assay (SEJIN CI Co., Seoul, Korea), as previously described with minor modification. Trolox was used as the positive control. ABTS radicals were produced by adding 10 mL of 7 mM ABTS in distilled water to 10 mL of 2.45 mM aqueous potassium persulfate solution. The mixture was kept in the dark for 12–16 h at RT until the reaction was complete and absorbance had stabilized. The prepared free radical solution was then diluted with methyl alcohol so that the optical density at 734 nm was 0.70 ± 0.02. Test samples (10 µL, final concentration at 100 µM) dissolved in EtOH/DMSO (9:1 v/v) were added to the diluted free radical solution (90 µL) in a 96-well plate. After standing at RT for 2 min in the dark, well absorbances were measured at 734 nm, and ABTS radical scavenging activities were calculated using the following formula:ABTS free radical scavenging activity (%) = (Ac − As) × 100/Ac(2) where Ac indicates the absorbance of the non-treated control, and As indicates the absorbances of test samples. Experiments were conducted independently 3 times.
The ABTS (2,2′-azino-bis(3-ethylbenzothiazoline-6-sulfonic acid)) cation radical scavenging assay is also commonly used to evaluate antioxidant effects. ABTS is converted to the ABTS radical cation by the transfer of one electron to potassium persulfate. Trolox was used as the positive control, and assays were performed at a test sample (analogs 1–8 and Trolox) concentration of 100 µM. The ABTS radical solution obtained by a reaction of ABTS with potassium persulfate was mixed with test samples and left in the dark for 2 min. ABTS radical scavenging abilities were evaluated by measuring absorbances at 734 nm. […] On the other hand, analog 1 with a 4-hydroxyphenyl group, and analogs 7 and 8 with bromo substituents on the β-phenyl ring weakly scavenged the ABTS radical (16.6–24.8% scavenging). […] Furthermore, the results for ABTS and DPPH radical scavenging activities were similar.

tyrosinase inhibition relative to kojic acid (mushroom tyrosinase)	IC50 (mushroom tyrosinase)	enhancement of tyrosinase inhibitory activity relative to analog 1 (mushroom tyrosinase)	SMILES	ROS scavenging [1]	ROS scavenging compared with Trolox [1]	peroxynitrite scavenging compared with penicillamine [2]	ABTS radical scavenging activity [3]
5 fold	5.21 ± 0.86 µM	13 fold	O=C1/C(=C/c2ccc(O)c(O)c2)SC(=S)N1C1CCCCC1 [Analog 2, (Z)-3-Cyclohexyl-5-(3,4-dihydroxybenzylidene)-2-thioxothiazolidin-4-one]	significantly and concentration-dependently scavenged ROS	more potently than Trolox	much more potently than penicillamine	81.0%
25 fold	1.03 ± 0.14 µM	63 fold	O=C1/C(=C/c2ccc(O)cc2O)SC(=S)N1C1CCCCC1 [Analog 3, (Z)-3-Cyclohexyl-5-(2,4-dihydroxybenzylidene)-2-thioxothiazolidin-4-one]	significantly and concentration-dependently scavenged ROS	more potently than Trolox	much more potently than penicillamine	72.1%
